How the values were obtained:
[1] = test system: HIV-1 strain IIIb; test: Inhibition of virus spread in HIV-infected MT-4 cells (p24 antigen); assay type: cell-based; settings: Human immunodeficiency virus 1, MT4, 72 h; HIV-1 IIIb-infected MT-4 cells; 3 days incubation; HIV p24 antigen in supernatant; read-out: CIC95
Procedure: INHIBITION OF VIRUS SPREAD
A. Preparation of HIV-infected MT-4 cell Suspension.
MT cells were infected at Day 0 at a concentration of 250,000 per ml with a 1:1000 dilution of HIV-1 strain IIIb stock (final 125 pg p24/ml; sufficient to yield ≤1% infected cells on day 1 and 25-100% on day 4). Cells were infected and grown in the following medium: RPMI 1640 (Whittaker BioProducts), 10% inactivated fetal bovine serum, 4 mM glutamine (Gibco Labs) and 1:100 Penicillin-Streptomycin (Gibco Labs).
The mixture was incubated overnight at 37° C. in 5% CO2 atmosphere.
B. Treatment with Inhibitors
A matrix of nanomolar range concentrations of the pairwise combinations was prepared. At Day 1, aliquots of […] of inhibitors were added to equal volumes of HIV-infected MT-4 cells (50,000 per well) in a 96-well microtiter cell culture plate. Incubation was continued for 3 days at 37° C. in 5% CO2 atmosphere.
C. Measurement of Virus Spread
Using a multichannel pipettor, the settled cells were resuspended and […] harvested into a separate microtiter plate. The supernatant was assayed for HIV p24 antigen.
The concentration of HIV p24 antigen was measured by an enzyme immunoassay,described as follows. Aliquots of p24 antigen to be measured were added to microwells coated with a monoclonal antibody specific for HIV core antigen. […]

[2] = molecular target: T1, HIV protease (Human immunodeficiency virus type 1 group M subtype B, UniProt P12497); test: Assay for inhibition of microbial expressed HIV protease (peptide substrate, HPLC); assay type: biochemical; settings: protease expressed in Eschericia coli, 50 mM Na acetate, pH 5.5, 30° C., 1 hour
T1 construct: the protease expressed in Eschericia coli; made in house; host or cells: Escherichia coli
Procedure: Assay for Inhibition of Microbial Expressed HIV Protease
Inhibition studies of the reaction of the protease expressed in Eschericia coli with a peptide substrate [Val-Ser-Gln-Asn(betanapthyl)Ala-Pro-Ile-Val, 0.5 mg/mL at the time the reaction is initiated] were in 50 mM Na acetate, pH 5.5, at 30° C. for 1 hour. Various concentrations of inhibitor in […] DMSO were added to […] of the peptide solution in water. The reaction is initiated by the addition of […] of 0.33 nM protease (0.11 ng) in a solution of 0.133M Na acetate pH 5.5 and 0.1% bovine serum albumin. The reaction was quenched with 160 ml of 5% phosphoric acid. Products of the reaction were separated by HPLC (VYDAC wide pore 5 cm C-18 reverse phase, acetonitrile gradient, 0.1% phosphoric acid). The extent of inhibition of the reaction was determined from the peak heights of the products.

CC(C)(C)NC(=O)c1ccccc1C[C@@H](O)C[C@@H](Cc1ccccc1)C(=O)N[C@H]1c2ccccc2C[C@H]1O [Compound A]
IC95 [1]: 800 nM | IC50 [2]: 1 to 6 nM

CC(C)(C)NS(=O)(=O)c1ccccc1C[C@@H](O)C[C@@H](Cc1ccccc1)C(=O)N[C@H]1c2ccccc2C[C@H]1O [Compound B]
IC95 [1]: 1500 nM | IC50 [2]: 1 to 6 nM

Cc1ccc(C[C@@H](O)C[C@@H](Cc2ccccc2)C(=O)N[C@H]2c3ccccc3C[C@H]2O)c(C(=O)NC(C)(C)C)c1 [Compound C]
IC50 [2]: 1 to 6 nM
